According to patent US4820712A, “Sparsomycin (SC-RS) compounds having antitumor activity, a process for their preparation and pharmaceutical compositions containing sparsomycin (SC-RS) compounds” (priority 1986, dated 1989):

Tests used:
[1] = tested on: ribosomes from E. coli MRE600 (peptidyl transferase activity); assay: polyphenylalanine synthesis assay, E. coli ribosomes; type: biochemical; settings: concentration giving 50% inhibition relative to control; 37° C., 30 min; read-out: ED50 polyPhe synthesis E. coli
Protocol: The peptidyl transferase activity was measured by the polyphenylalanine synthesis assay (Nirenberg and Matthei, Proc. Natl. Acad. Sci. USA 47 (1961) 1588), the fragment reaction (Monro, Methods Enzymol. 20 (1971) 472) and the puromycin reaction. In all the in vitro tests, i.e. polyPhe synthesis, fragment reaction and puromycin reaction, ribosomes from E. coli MRE600 and S. cerevisiae Y166 were used. The reaction mixture for polyphenylalanine synthesis was slightly different for E. coli and S. cerevisiae.
E. coli: The reaction mixture (50 μl) contained 50 mM Tris-HCl pH 7.6, 15 mM MgCl2, 90 mM KCl, 15 mM β-mercapto ethanol, 1 mM GTP, 10 mM ATP, 0.2 mg/ml of polyuridylic acid, 1.5 mg/ml tRNA, 0.3 μM of ribosomes, 2.5 mg/ml of phosphoenol pyruvate, 20 μg/ml of pyruvate kinase, the required concentration of sparsomycin or its analogue and 5 μl of supernatant fraction S-100. Subsequently, [^3 H]phenylalanine, 30 μM (about 60 cpm/pmol) was added to start the reaction. Incubation was at 37° C. for 30 min. The reaction was stopped by the addition of 1 ml of 10% TCA and the samples were filtered through glass fiber filters. The filters were washed with 10 ml of cold 10% TCA, dried and counted for radioactivity.
The concentration of sparsomycin or an analog giving 50% inhibition of the protein synthesis relative to the control is given in ED50.

acute toxicity LD50 = type: in vivo, mice; settings: for LD50: mouse, in vivo, ip, daily x9 injections, mice, 95% confidence interval given, read-out: LD 50 in mg/kg/inj i.p. in mice
From the text: It appears therefrom that ala-sparsomycin is about 9× less toxic than sparsomycin.

whole reticulocytes = settings: attributed to being unable to penetrate these cells; cited from earlier work
[2] = clinical tests (Cancer. Chemother. Rep. (1969), 43, 29); cited from earlier work

In the case of CSC[S@+]([O-])C[C@H](C)NC(=O)/C=C/c1c(C)[nH]c(=O)[nH]c1=O [2a, (Sc Rs)-1-(methylthiomethyl)sulfinyl-2-[β-(6-methyl-5-uracilyl)acrylamido]-propane], the IC50 [1] is reported as 15.1 µM, the “times less toxic than sparsomycin (LD50 ratio)” value (acute toxicity LD50; compared with sparsomycin, LD50 i.p. in mice) is reported as “about 9 ×” and the LD50 (acute toxicity LD50) is reported as 2.33 mg/kg.
In the case of CSC[S@+]([O-])C[C@H](CO)NC(=O)/C=C/c1c(C)[nH]c(=O)[nH]c1=O [Sparsomycin], the IC50 [1] is listed as 8.5 µM, the “activity against whole reticulocytes” value (whole reticulocytes) is listed as “not active” and the “toxicity revealed in clinical tests” value [2] is listed as “eye toxicity”. The LD50 (acute toxicity LD50) was 0.26 mg/kg.
